SMILES strings stand for the structures.

Assay [1] concerns the target EGFR (human) (UniProt P00533). As to conditions: a431.
In a further assay the target is EGFR (murine) (UniProt P00533). As to conditions: balb/mk cells.
For another assay, the target named is EGFR (UniProt P00533).
In assay [2] the target is EGFR (human) (UniProt P00533). As to conditions: a431, concentration not given here.
EGFR (human), sequence (P00533 whole entry, looked up): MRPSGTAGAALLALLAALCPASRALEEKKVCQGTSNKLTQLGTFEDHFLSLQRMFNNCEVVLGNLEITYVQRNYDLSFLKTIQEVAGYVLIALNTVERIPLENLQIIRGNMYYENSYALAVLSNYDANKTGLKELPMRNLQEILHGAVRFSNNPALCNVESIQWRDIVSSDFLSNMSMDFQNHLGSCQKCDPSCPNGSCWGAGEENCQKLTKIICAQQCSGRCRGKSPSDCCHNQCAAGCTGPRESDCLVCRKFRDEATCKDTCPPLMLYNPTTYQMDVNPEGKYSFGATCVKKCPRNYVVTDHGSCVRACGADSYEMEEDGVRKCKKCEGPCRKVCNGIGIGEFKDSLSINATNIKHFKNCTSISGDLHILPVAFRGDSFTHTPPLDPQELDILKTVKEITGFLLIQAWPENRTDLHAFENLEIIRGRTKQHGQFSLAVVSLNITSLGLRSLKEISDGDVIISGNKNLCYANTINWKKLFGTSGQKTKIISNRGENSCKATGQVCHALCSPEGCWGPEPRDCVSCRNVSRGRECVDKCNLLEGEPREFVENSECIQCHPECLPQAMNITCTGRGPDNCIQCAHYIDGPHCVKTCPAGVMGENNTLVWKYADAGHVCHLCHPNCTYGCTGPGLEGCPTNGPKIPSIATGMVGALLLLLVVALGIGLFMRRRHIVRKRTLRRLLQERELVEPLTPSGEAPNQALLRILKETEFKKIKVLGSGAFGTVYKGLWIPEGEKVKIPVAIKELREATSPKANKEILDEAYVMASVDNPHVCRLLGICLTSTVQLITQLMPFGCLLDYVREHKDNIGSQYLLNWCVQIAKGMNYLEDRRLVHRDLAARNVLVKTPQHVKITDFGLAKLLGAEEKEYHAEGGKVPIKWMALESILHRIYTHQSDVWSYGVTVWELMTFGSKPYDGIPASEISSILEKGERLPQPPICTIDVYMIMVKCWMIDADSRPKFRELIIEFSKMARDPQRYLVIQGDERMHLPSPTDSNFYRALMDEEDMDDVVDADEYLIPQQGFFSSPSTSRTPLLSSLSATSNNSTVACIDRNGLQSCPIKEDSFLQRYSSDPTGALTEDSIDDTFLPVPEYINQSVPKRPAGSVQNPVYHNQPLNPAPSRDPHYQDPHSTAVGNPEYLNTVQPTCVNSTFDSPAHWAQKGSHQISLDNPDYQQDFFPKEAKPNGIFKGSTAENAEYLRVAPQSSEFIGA

EGFR (murine), sequence (P00533 whole entry, looked up): as above
EGFR, sequence (P00533 whole entry, looked up): as above

Regarding `CN(C)CCC(=O)c1ccc(OCc2ccccc2)cc1`, the half-maximal inhibitory concentration (IC50) at EGFR (human) [1] is more than 100 µM.
Still for that read-out and setting: the figure for `CCOC(=O)C1CCN(CCC(=O)c2ccc(OCc3ccccc3)cc2)CC1` is more than 100 µM.
Consider `C=C(CN1CCN(C)CC1)C(=O)c1ccc(OCc2ccccc2)cc1`, for which the half-inhibitory concentration (IC50) was 0.95 µM in the assay with EGFR (murine), 1.5 µM on EGFR and more than 100 µM against EGFR (human) [1].
As to `CC(CN(C)C)C(=O)c1ccc(OS(=O)(=O)c2ccc(C(=O)O)cc2)cc1` (stereo not given), the IC50 with EGFR (murine) is more than 50 µM.
With `O=C(CCN1CCOCC1)c1ccc(OCc2ccccc2)cc1`, the IC50 against EGFR (human) [1] was more than 100 µM.
`C=C(CN(C)C)C(=O)c1ccccc1` returned an IC50 against EGFR (human) [1] of more than 100 µM.
Still for that read-out and setting: with `C=C(CN1CCCCC1)C(=O)c1ccc(OCc2ccccc2)cc1` the figure was more than 100 µM.
Consider `C=C(CN(C)C)C(=O)c1ccc(OS(=O)(=O)c2ccc(C(=O)O)cc2)cc1`, for which the 50% inhibitory concentration (IC50) in the assay with EGFR (murine) is more than 50 µM.
The compound `CN(C)CCCC(=O)c1ccc(OCc2ccccc2)cc1` registered a concentration for half-maximal inhibition (IC50) with EGFR (murine) of more than 50 µM.
`N#CC(C#N)=Cc1cc(O)c(O)c(O)c1`: the values for the IC50 with EGFR (murine) and against EGFR were 31.1 µM and 70 µM, respectively.
`C=C(CN1CCOCC1)C(=O)c1ccc(OCc2ccccc2)cc1` returned an inhibition against EGFR (human) [2] of 100%.
In the case of `C=C(CN(C)C)C(=O)c1ccc(OCc2ccccc2)c(O)c1`, on EGFR (human) [1], the IC50 is more than 100 µM.

A word on the IC50: it is the concentration that gives 50% inhibition. High values mean lower potency, low ones higher potency. The term inhibition denotes the relative decrease from the control value, in per cent. The low end stands for little suppression, the high end for strong suppression.

(Values after the Kinase Knowledgebase extract (Sharma et al. 2016).)
